In PubChem BioAssay (NCI):
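Results reflect a 48-hour exposure of cells in 96-well plates to compound at five concentrations. At the TGI there is no net growth.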

What was measured:
Test in all cases: DTP human tumour cell line panel, 48 h
NCI/ADR-RES ovarian = system: NCI/ADR-RES ovarian
SR leukemia = system: SR leukemia
ACHN renal = system: ACHN renal
SNB-19 CNS = system: SNB-19 CNS
T-47D breast = system: T-47D breast
MCF7 breast = system: MCF7 breast
SW-620 colon = system: SW-620 colon
HL-60(TB) leukemia = system: HL-60(TB) leukemia
NCI-H23 lung = system: NCI-H23 lung
SK-MEL-5 melanoma = system: SK-MEL-5 melanoma
HT29 colon = system: HT29 colon
CCRF-CEM leukemia = system: CCRF-CEM leukemia
SF-268 CNS = system: SF-268 CNS
SF-539 CNS = system: SF-539 CNS
IGROV1 ovarian = system: IGROV1 ovarian
HCT-15 colon = system: HCT-15 colon
HCC-2998 colon = system: HCC-2998 colon
HS 578T breast = system: HS 578T breast
EKVX NSCLC = system: EKVX NSCLC
UO-31 renal = system: UO-31 renal
SNB-75 CNS = system: SNB-75 CNS
NCI-H522 lung = system: NCI-H522 lung
OVCAR-3 ovarian = system: OVCAR-3 ovarian
SK-OV-3 ovarian = system: SK-OV-3 ovarian
PC-3 prostate = system: PC-3 prostate
SK-MEL-28 melanoma = system: SK-MEL-28 melanoma
HCT-116 colon = system: HCT-116 colon
OVCAR-8 ovarian = system: OVCAR-8 ovarian
OVCAR-5 ovarian = system: OVCAR-5 ovarian
RPMI-8226 leukemia = system: RPMI-8226 leukemia
SF-295 CNS = system: SF-295 CNS
M14 melanoma = system: M14 melanoma
DU-145 prostate = system: DU-145 prostate
K-562 leukemia = system: K-562 leukemia
UACC-257 melanoma = system: UACC-257 melanoma
COLO 205 colon = system: COLO 205 colon
CAKI-1 renal = system: CAKI-1 renal
HOP-62 NSCLC = system: HOP-62 NSCLC
BT-549 breast = system: BT-549 breast
OVCAR-4 ovarian = system: OVCAR-4 ovarian
MOLT-4 leukemia = system: MOLT-4 leukemia
SK-MEL-2 melanoma = system: SK-MEL-2 melanoma
MDA-MB-231 breast = system: MDA-MB-231 breast
NCI-H460 lung = system: NCI-H460 lung
KM12 colon = system: KM12 colon
UACC-62 melanoma = system: UACC-62 melanoma
786-0 renal = system: 786-0 renal
HOP-92 NSCLC = system: HOP-92 NSCLC
A498 renal = system: A498 renal
LOX IMVI melanoma = system: LOX IMVI melanoma
U251 CNS = system: U251 CNS
MALME-3M melanoma = system: MALME-3M melanoma
MDA-MB-435 = system: MDA-MB-435
NCI-H226 lung = system: NCI-H226 lung
SN12C renal = system: SN12C renal
MDA-N = system: MDA-N
A549 NSCLC = system: A549 NSCLC
TK-10 renal = system: TK-10 renal
RXF 393 renal = system: RXF 393 renal

Measured: TGI

CS(=O)(=O)Nc1ccc2ccccc2c1
> 100 µM: NCI/ADR-RES ovarian | SR leukemia | ACHN renal | SNB-19 CNS | T-47D breast | MCF7 breast | SW-620 colon | HL-60(TB) leukemia | NCI-H23 lung | SK-MEL-5 melanoma | HT29 colon | CCRF-CEM leukemia | SF-268 CNS | SF-539 CNS | IGROV1 ovarian | HCT-15 colon | HCC-2998 colon | HS 578T breast | EKVX NSCLC | UO-31 renal | SNB-75 CNS | NCI-H522 lung | OVCAR-3 ovarian | SK-OV-3 ovarian | PC-3 prostate | SK-MEL-28 melanoma | HCT-116 colon | OVCAR-8 ovarian | OVCAR-5 ovarian | RPMI-8226 leukemia | SF-295 CNS | M14 melanoma | DU-145 prostate | K-562 leukemia | UACC-257 melanoma | COLO 205 colon | CAKI-1 renal | HOP-62 NSCLC | BT-549 breast | OVCAR-4 ovarian | MOLT-4 leukemia | SK-MEL-2 melanoma | MDA-MB-231 breast | NCI-H460 lung | KM12 colon | UACC-62 melanoma | 786-0 renal | HOP-92 NSCLC | A498 renal | LOX IMVI melanoma | U251 CNS | MALME-3M melanoma | MDA-MB-435 | NCI-H226 lung | SN12C renal | MDA-N | A549 NSCLC | TK-10 renal

Cc1cc(S(=O)(=O)N=C2Nc3cccc4cccc(c34)N2)c(S)cc1Cl
> 100 µM: NCI/ADR-RES ovarian | SR leukemia | ACHN renal | SNB-19 CNS | T-47D breast | MCF7 breast | SW-620 colon | HL-60(TB) leukemia | SK-MEL-5 melanoma | CCRF-CEM leukemia | SF-268 CNS | SF-539 CNS | IGROV1 ovarian | HCT-15 colon | HCC-2998 colon | HS 578T breast | EKVX NSCLC | UO-31 renal | SNB-75 CNS | NCI-H522 lung | OVCAR-3 ovarian | PC-3 prostate | SK-MEL-28 melanoma | OVCAR-8 ovarian | OVCAR-5 ovarian | RPMI-8226 leukemia | SF-295 CNS | M14 melanoma | DU-145 prostate | K-562 leukemia | UACC-257 melanoma | COLO 205 colon | CAKI-1 renal | BT-549 breast | OVCAR-4 ovarian | MOLT-4 leukemia | SK-MEL-2 melanoma | MDA-MB-231 breast | NCI-H460 lung | KM12 colon | UACC-62 melanoma | RXF 393 renal | 786-0 renal | HOP-92 NSCLC | LOX IMVI melanoma | U251 CNS | MALME-3M melanoma | MDA-MB-435 | NCI-H226 lung | MDA-N | A549 NSCLC
83.8 µM: HCT-116 colon

O=C1CC[C@@]23CC(=O)O[C@@H]2CCCC3C1 (stereo not given in full)
> 100 µM: NCI/ADR-RES ovarian | SR leukemia | ACHN renal | SNB-19 CNS | T-47D breast | MCF7 breast | SW-620 colon | HL-60(TB) leukemia | NCI-H23 lung | SK-MEL-5 melanoma | HT29 colon | CCRF-CEM leukemia | SF-268 CNS | SF-539 CNS | IGROV1 ovarian | HCT-15 colon | HCC-2998 colon | HS 578T breast | EKVX NSCLC | UO-31 renal | SNB-75 CNS | NCI-H522 lung | SK-OV-3 ovarian | PC-3 prostate | SK-MEL-28 melanoma | HCT-116 colon | OVCAR-8 ovarian | OVCAR-5 ovarian | RPMI-8226 leukemia | SF-295 CNS | M14 melanoma | DU-145 prostate | K-562 leukemia | UACC-257 melanoma | COLO 205 colon | CAKI-1 renal | HOP-62 NSCLC | BT-549 breast | OVCAR-4 ovarian | MOLT-4 leukemia | SK-MEL-2 melanoma | MDA-MB-231 breast | NCI-H460 lung | KM12 colon | UACC-62 melanoma | RXF 393 renal | 786-0 renal | LOX IMVI melanoma | U251 CNS | MALME-3M melanoma | NCI-H226 lung | SN12C renal | MDA-N | A549 NSCLC | TK-10 renal
